Reference: patent publication US20180087079A1, “METHODS OF USING CELL-CYCLE INHIBITORS TO MODULATE ONE OR MORE PROPERTIES OF A CELL CULTURE” (AMGEN INC., priority 2013, published 2018)
pIC50: −log10 of the molar value.

Legend:
[1] = test system: transfected CHO cells expressing recombinant human monoclonal antibody (cell line 1); assay: 24-deep well culture, cell line 1: VCD, viability, titer, qP; type: cell-based, Chinese hamster; conditions: for Titer / VCD / Viability / qP: Cell Line 1; for effect on viability / growth arrest: summary of Table 2
Outline: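 Antibody-expressing CHO lines were grown in 24-deep-well plates with or without compound. Cultures were sampled at set time points for VCD (10^6 cells/mL), viability, titer (g/L, by Protein A HPLC) and specific productivity qP (pg/cell/day). High-molecular-weight species and Mannose 5 share were also measured.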

CDK4/Cyclin D1 = molecular target: T1, CDK4/Cyclin D1 (Homo sapiens, UniProt P11802); assay: CDK4 filtration kinase assay; type: biochemical; conditions: CDK4/Cyclin D1, Rb fragment substrate, [33P]-ATP
T1 construct: purchased Cell Signaling Technology
T1 sequence (P11802 whole entry, species assumed, the tested form may be a part): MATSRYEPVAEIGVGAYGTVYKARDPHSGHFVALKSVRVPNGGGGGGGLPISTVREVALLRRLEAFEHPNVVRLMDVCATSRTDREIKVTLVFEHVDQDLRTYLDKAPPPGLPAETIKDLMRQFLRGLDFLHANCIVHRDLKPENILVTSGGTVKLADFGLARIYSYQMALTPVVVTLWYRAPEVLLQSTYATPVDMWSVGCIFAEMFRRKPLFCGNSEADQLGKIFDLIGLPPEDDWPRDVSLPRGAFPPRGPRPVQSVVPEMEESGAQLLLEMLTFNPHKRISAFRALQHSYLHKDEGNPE
T1 sequence (P24385 whole entry partner, species assumed, the tested form may be a part): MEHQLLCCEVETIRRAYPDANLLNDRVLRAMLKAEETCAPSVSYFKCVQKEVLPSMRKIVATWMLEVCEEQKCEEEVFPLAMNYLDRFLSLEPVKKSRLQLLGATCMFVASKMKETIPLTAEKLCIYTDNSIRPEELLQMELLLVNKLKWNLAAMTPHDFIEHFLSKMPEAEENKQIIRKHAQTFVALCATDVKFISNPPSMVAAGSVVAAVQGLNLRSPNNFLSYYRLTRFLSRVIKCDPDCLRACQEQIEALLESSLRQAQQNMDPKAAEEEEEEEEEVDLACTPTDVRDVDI
Method: The CDK4 inhibitory activity of the cell cycle inhibitors was determined with a filtration kinase assay. The compounds, kinase and substrate diluted in the kinase buffer (20 mM Tris, pH7.4, 50 mM NaCl, 1 mM DTT, 0.1% BSA) were sequentially added to a 96-well Multiscreen HTS filtration plate (Millipore). The final 100 μL reaction mixture in each well contained 0.3 μg of CDK4/Cyclin D1 (Cell Signaling Technology), 1 μg of Rb fragment (aa773-928, Millipore) for the CDK4 assay and 1 μCi of [^33P]-ATP. The mixture was incubated at room temperature for 1 hour. The proteins in the reaction were then precipitated and washed with cold TCA solution using an aspiration/filtration vacuum system. The plates were dried at room temperature, and the retained radioactivity was measured by scintillation counting. IC50 values of the compounds in the above assays were determined by non-linear regression analysis using Prism (GraphPad Software).

Colo205 = assay: [14C]-thymidine incorporation cell proliferation inhibition assay; type: cell-based; conditions: Homo sapiens, COLO 205, 72 hour incubation
Method: The cell proliferation inhibition potency of the cell cycle inhibitors was determined by using a [^14C]-thymidine incorporation assay. Exponentially growing cells (Colo205) were seeded in a 96-well Cytostar T plate (GE Healthcare Biosciences) at a density of 5×10^3 cells/well and incubated overnight. Serially diluted compounds and 0.1 μCi of [^14C]-thymidine (GE Healthcare Biosciences) were added to each well on the following day. After 72 hour incubation, isotope incorporation was determined with a β plate counter (Wallac). IC50 values of the compounds in the above assays were determined by non-linear regression analysis using Prism (GraphPad Software).

CC1CCC(n2c3cnccc3c3cnc(Nc4ccc(N5CCNC(C)C5)nn4)nc32)CC1 (stereo not shown) [Compound D, 9-(4-methylcyclohexyl)-N-(6-(3-methylpiperazin-1-yl)pyridazin-3-yl)-9H-pyrido[4′,3′:4,5]pyrrolo[2,3-d]pyrimidin-2-amine]
Titer ([1]; 2.5 microM, D 1): 0.49 g/L | VCD ([1]; 2.5 microM, D 1): 11.85 e6/mL | Viability ([1]; 2.5 microM, D 1): 95.50% | qP ([1]; 2.5 microM, D 1): 41.37 pg/c/d | Titer ([1]; 2.5 microM, D 2): 0.73 g/L | VCD ([1]; 2.5 microM, D 2): 10.72 e6/mL | Viability ([1]; 2.5 microM, D 2): 87.30% | qP ([1]; 2.5 microM, D 2): 67.79 pg/c/d | Titer ([1]; 2.5 microM, D 3): 0.98 g/L | VCD ([1]; 2.5 microM, D 3): 11.11 e6/mL | Viability ([1]; 2.5 microM, D 3): 84.83% | qP ([1]; 2.5 microM, D 3): 87.94 pg/c/d | Titer ([1]; 2.5 microM, D 4): 1.27 g/L | VCD ([1]; 2.5 microM, D 4): 14.71 e6/mL | Viability ([1]; 2.5 microM, D 4): 82.00% | qP ([1]; 2.5 microM, D 4): 86.32 pg/c/d | Titer ([1]; 5 microM, D 1): 0.49 g/L | VCD ([1]; 5 microM, D 1): 11.76 e6/mL | Viability ([1]; 5 microM, D 1): 95.92% | qP ([1]; 5 microM, D 1): 41.95 pg/c/d | Titer ([1]; 5 microM, D 2): 0.70 g/L | VCD ([1]; 5 microM, D 2): 10.17 e6/mL | Viability ([1]; 5 microM, D 2): 86.10% | qP ([1]; 5 microM, D 2): 69.17 pg/c/d | Titer ([1]; 5 microM, D 3): 0.87 g/L | VCD ([1]; 5 microM, D 3): 9.71 e6/mL | Viability ([1]; 5 microM, D 3): 79.43% | qP ([1]; 5 microM, D 3): 89.92 pg/c/d | Titer ([1]; 5 microM, D 4): 1.11 g/L | VCD ([1]; 5 microM, D 4): 11.94 e6/mL | Viability ([1]; 5 microM, D 4): 76.30% | qP ([1]; 5 microM, D 4): 92.69 pg/c/d | Titer ([1]; 10 microM, D 1): 0.49 g/L | VCD ([1]; 10 microM, D 1): 11.35 e6/mL | Viability ([1]; 10 microM, D 1): 94.69% | qP ([1]; 10 microM, D 1): 43.16 pg/c/d | Titer ([1]; 10 microM, D 2): 0.67 g/L | VCD ([1]; 10 microM, D 2): 9.65 e6/mL | Viability ([1]; 10 microM, D 2): 82.20% | qP ([1]; 10 microM, D 2): 69.81 pg/c/d | Titer ([1]; 10 microM, D 3): 0.86 g/L | VCD ([1]; 10 microM, D 3): 9.31 e6/mL | Viability ([1]; 10 microM, D 3): 76.69% | qP ([1]; 10 microM, D 3): 92.01 pg/c/d | Titer ([1]; 10 microM, D 4): 0.99 g/L | VCD ([1]; 10 microM, D 4): 10.04 e6/mL | Viability ([1]; 10 microM, D 4): 70.89% | qP ([1]; 10 microM, D 4): 98.63 pg/c/d | effect on viability [1]: minimal effects on viability | growth arrest [1]: reasonably sustained growth arrest | pIC50 (CDK4/Cyclin D1): 8.73 | pIC50 (Colo205): 7.52

CC1CCC(n2c3cnccc3c3cnc(Nc4ccc(N5CCC6(CC5)CCS(=O)(=O)C6)nn4)nc32)CC1 (stereo not shown) [Compound E, 8-(6-((9-(4-methylcyclohexyl)-9H-pyrido[4′,3′:4,5]pyrrolo[2,3-d]pyrimidin-2-yl)amino)pyridazin-3-yl)-2-thia-8-azaspiro[4.5]decane 2,2-dioxide]
Titer ([1]; 5 microM, D 1): 0.47 g/L | VCD ([1]; 5 microM, D 1): 10.31 e6/mL | Viability ([1]; 5 microM, D 1): 95.94% | qP ([1]; 5 microM, D 1): 45.61 pg/c/d | Titer ([1]; 5 microM, D 2): 0.67 g/L | VCD ([1]; 5 microM, D 2): 9.37 e6/mL | Viability ([1]; 5 microM, D 2): 85.43% | qP ([1]; 5 microM, D 2): 71.53 pg/c/d | Titer ([1]; 5 microM, D 3): 0.85 g/L | VCD ([1]; 5 microM, D 3): 10.05 e6/mL | Viability ([1]; 5 microM, D 3): 79.09% | qP ([1]; 5 microM, D 3): 84.92 pg/c/d | Titer ([1]; 5 microM, D 4): 0.98 g/L | VCD ([1]; 5 microM, D 4): 10.39 e6/mL | Viability ([1]; 5 microM, D 4): 72.71% | qP ([1]; 5 microM, D 4): 94.68 pg/c/d | Titer ([1]; 10 microM, D 1): 0.48 g/L | VCD ([1]; 10 microM, D 1): 9.99 e6/mL | Viability ([1]; 10 microM, D 1): 94.71% | qP ([1]; 10 microM, D 1): 47.72 pg/c/d | Titer ([1]; 10 microM, D 2): 0.66 g/L | VCD ([1]; 10 microM, D 2): 9.29 e6/mL | Viability ([1]; 10 microM, D 2): 83.23% | qP ([1]; 10 microM, D 2): 71.04 pg/c/d | Titer ([1]; 10 microM, D 3): 0.83 g/L | VCD ([1]; 10 microM, D 3): 9.55 e6/mL | Viability ([1]; 10 microM, D 3): 76.37% | qP ([1]; 10 microM, D 3): 87.30 pg/c/d | Titer ([1]; 10 microM, D 4): 0.96 g/L | VCD ([1]; 10 microM, D 4): 10.29 e6/mL | Viability ([1]; 10 microM, D 4): 72.16% | qP ([1]; 10 microM, D 4): 92.97 pg/c/d | effect on viability [1]: greater (but still modest) decreases in viability | growth arrest [1]: more sustained growth arrest | pIC50 (CDK4/Cyclin D1): 8.35 | pIC50 (Colo205): 7.42

CN(C)C1CCN(c2ccc(Nc3ncc4c(n3)C3(C=CC(C)(C)CC3)c3cnccc3-4)cn2)CC1 (stereo not shown) [Compound F, N-(6-(4-(dimethylamino)piperidin-1-yl)pyridin-3-yl)-4,4-dimethylspiro[cyclohex[2]ene-1,9′-pyrido[4′,3′:3,4]cyclopenta[1,2-d]pyrimidin]-2′-amine]
Titer ([1]; 1.2 microM, D 1): 0.49 g/L | VCD ([1]; 1.2 microM, D 1): 11.56 e6/mL | Viability ([1]; 1.2 microM, D 1): 96.84% | qP ([1]; 1.2 microM, D 1): 42.39 pg/c/d | Titer ([1]; 1.2 microM, D 2): 0.73 g/L | VCD ([1]; 1.2 microM, D 2): 10.80 e6/mL | Viability ([1]; 1.2 microM, D 2): 90.23% | qP ([1]; 1.2 microM, D 2): 67.31 pg/c/d | Titer ([1]; 1.2 microM, D 3): 0.96 g/L | VCD ([1]; 1.2 microM, D 3): 11.96 e6/mL | Viability ([1]; 1.2 microM, D 3): 89.40% | qP ([1]; 1.2 microM, D 3): 80.01 pg/c/d | Titer ([1]; 1.2 microM, D 4): 1.13 g/L | VCD ([1]; 1.2 microM, D 4): 14.70 e6/mL | Viability ([1]; 1.2 microM, D 4): 88.76% | qP ([1]; 1.2 microM, D 4): 77.09 pg/c/d | Titer ([1]; 2.4 microM, D 1): 0.50 g/L | VCD ([1]; 2.4 microM, D 1): 11.16 e6/mL | Viability ([1]; 2.4 microM, D 1): 95.96% | qP ([1]; 2.4 microM, D 1): 44.50 pg/c/d | Titer ([1]; 2.4 microM, D 2): 0.75 g/L | VCD ([1]; 2.4 microM, D 2): 10.01 e6/mL | Viability ([1]; 2.4 microM, D 2): 89.97% | qP ([1]; 2.4 microM, D 2): 75.27 pg/c/d | Titer ([1]; 2.4 microM, D 3): 0.97 g/L | VCD ([1]; 2.4 microM, D 3): 10.33 e6/mL | Viability ([1]; 2.4 microM, D 3): 88.89% | qP ([1]; 2.4 microM, D 3): 93.88 pg/c/d | Titer ([1]; 2.4 microM, D 4): 1.18 g/L | VCD ([1]; 2.4 microM, D 4): 12.84 e6/mL | Viability ([1]; 2.4 microM, D 4): 86.16% | qP ([1]; 2.4 microM, D 4): 91.87 pg/c/d | effect on viability [1]: minimal effects on viability | growth arrest [1]: reasonably sustained growth arrest | pIC50 (CDK4/Cyclin D1): 7.47 | pIC50 (Colo205): 7.46
